According to patent US20110236885A1 (Academia Sinica, priority 2004, published 2011):
Several values for one entry are separate records, joined by “and”; a condition that tells them apart may be missing. Equal values may be shown once.

How the values were obtained:
[1] = test system: Han Chinese patients having warfarin sensitivity and resistance; assay: Warfarin maintenance dose and INR in selected Chinese patients with warfarin sensitivity or resistance, by VKORC1 -1639 genotype; assay type: in vivo, human; conditions: for Dose: individual patients; for dose requirements, mean / dose requirements, range: selected patients
Text: (§1) Clinical information (including age, sex, weight, and average daily maintenance dose) was obtained from every participant.
Primers were specifically designed for the intron-exon junctions, exons and 2 kbps upstream of the transcription start site for both CYP2C9 and VKORC1 using the Primer3 PCR primer program (http://fokker.wi.mit.edu/cgi-bin/primer3/primer3_www.cgi). The primers used to detect variants in the VKORC1 promoter were: 5′-[…] (SEQ ID NO:2; sense strand located 1.5 kb upstream of the transcription start site) and 5′-[…] (SEQ ID NO:3; anti-sense strand located 0.9 kb upstream of the transcription start site). The polymerase chain reactions (PCR) were performed in a final volume of […] containing 0.4 μM of each primer, 10 mM Tris-HCl (pH8.3), 50 mM KCl, 1.5 mM MgCl2, 0.2 mM dNTPs and 1 unit HotStart Taq™ (Qiagen Inc, Valencia, Calif., USA). Amplification conditions consisted of an initial denaturation of 12 min at 96° C., followed by 34 PCR cycles in 30 sec at 96° C., 30 sec at 60° C., 40 sec at 72° C.
The variants were: 1075 A>C (1359L known as CYP2C9*3), 895 A>G (T299A), and 1145 C>T (P382L).
We also sequenced the promoter, coding regions, and the exon-intron junctions of the VKORC1 gene.

[2] = test system: randomly selected Chinese patients receiving warfarin; assay: Warfarin maintenance dose and INR in 104 randomly selected Chinese patients receiving warfarin, by VKORC1 -1639 genotype; assay type: in vivo, human
Protocol: as §1
Briefly, primers and probes were designed using the Spectro[…] software (Sequenom). Multiplex PCR was performed, and unincorporated dNTPs were dephosphorylated using shrimp alkaline phosphatase (Hoffman-LaRoche, Basel, Switzerland), followed by primer extension. The purified primer extension reactions were spotted onto a 384-element silicon chip (SpectroCHIP, Sequenom), analyzed in the Bruker Biflex III MALDI-TOF SpectroREADER mass spectrometer (Sequenom), and the resulting spectrum was processed with SpectroTYPER (Sequenom).
We analyzed the data regardless of the presence of other confounding variables, such as diet or other medications.

[3] = heterozygous AG at VKORC1 -1639

## CC(=O)CC(c1ccccc1)c1c(O)c2ccccc2oc1=O (racemic) [warfarin, 4-hydroxy-3-(3-oxo-1-phenylbutyl)-2H-1-benzopyran-2-one]
[1]; VKORC1 -1639 AA, warfarin sensitive group (dose ≦1.5 mg/day), average daily maintenance dose
  Dose: 1.43 mg/d and 1.5 mg/d and 0.71 mg/d and 1 mg/d (2×)
[1]; VKORC1 -1639 AG, warfarin resistant group (dose ≧6 mg/day)
  Dose: 6.07 mg/day and 10 mg/day
[1]; VKORC1 -1639 GG, warfarin resistant group (dose ≧6 mg/day)
  Dose: 8.57 mg/day and 8.75 mg/day and 10 mg/day
[1]; AA genotype at VKORC1 -1639
  dose requirements, mean: 1.19 mg/day
  dose requirements, range: 0.71 to 1.50 mg/day
[1]; [3]
  dose requirements, mean: 8.04 mg/day
  dose requirements, range: 6.07 to 10 mg/day
[1]; homozygous GG at VKORC1 -1639
  dose requirements, mean: 9.11 mg/day
  dose requirements, range: 8.57 to 10 mg/day
[2]; none of the randomly selected patients had a greater dose
  warfarin dose, upper limit observed: ≤ 6 mg/day
[2]; randomly selected patients, AA genotype
  maintenance dose: 2.61+/−1.10 my/day
[2]; randomly selected patients, VKORC1 -1639 AG + GG (n = 21), mean ± SD
  Warfarin dose,: 3.81 ± 1.24 mg/day and 3.81 mg/day
